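Briefly, cells in 96-well plates were exposed to five compound concentrations for 48 h, and endpoints were estimated by linear interpolation. TGI: concentration producing complete growth inhibition.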
How the values were obtained:
Test in all cases: NCI anticancer screen, dose series, 48 h
786-0 renal = system: 786-0 renal
A498 renal = system: A498 renal
A549 NSCLC = system: A549 NSCLC
ACHN renal = system: ACHN renal
CAKI-1 renal = system: CAKI-1 renal
CCRF-CEM leukemia = system: CCRF-CEM leukemia
COLO 205 colon = system: COLO 205 colon
DU-145 prostate = system: DU-145 prostate
EKVX NSCLC = system: EKVX NSCLC
HCC-2998 colon = system: HCC-2998 colon
HCT-116 colon = system: HCT-116 colon
HCT-15 colon = system: HCT-15 colon
HL-60(TB) leukemia = system: HL-60(TB) leukemia
HOP-62 NSCLC = system: HOP-62 NSCLC
HS 578T breast = system: HS 578T breast
HT29 colon = system: HT29 colon
IGROV1 ovarian = system: IGROV1 ovarian
K-562 leukemia = system: K-562 leukemia
KM12 colon = system: KM12 colon
M14 melanoma = system: M14 melanoma
MALME-3M melanoma = system: MALME-3M melanoma
MCF7 breast = system: MCF7 breast
MDA-MB-231 breast = system: MDA-MB-231 breast
MDA-MB-435 = system: MDA-MB-435
MDA-N = system: MDA-N
MOLT-4 leukemia = system: MOLT-4 leukemia
NCI-H226 lung = system: NCI-H226 lung
NCI-H23 lung = system: NCI-H23 lung
NCI-H460 lung = system: NCI-H460 lung
NCI-H522 lung = system: NCI-H522 lung
NCI/ADR-RES ovarian = system: NCI/ADR-RES ovarian
OVCAR-4 ovarian = system: OVCAR-4 ovarian
OVCAR-5 ovarian = system: OVCAR-5 ovarian
OVCAR-8 ovarian = system: OVCAR-8 ovarian
PC-3 prostate = system: PC-3 prostate
RPMI-8226 leukemia = system: RPMI-8226 leukemia
RXF 393 renal = system: RXF 393 renal
SF-268 CNS = system: SF-268 CNS
SF-295 CNS = system: SF-295 CNS
SF-539 CNS = system: SF-539 CNS
SK-MEL-2 melanoma = system: SK-MEL-2 melanoma
SK-MEL-28 melanoma = system: SK-MEL-28 melanoma
SK-MEL-5 melanoma = system: SK-MEL-5 melanoma
SK-OV-3 ovarian = system: SK-OV-3 ovarian
SN12C renal = system: SN12C renal
SNB-19 CNS = system: SNB-19 CNS
SNB-75 CNS = system: SNB-75 CNS
SR leukemia = system: SR leukemia
SW-620 colon = system: SW-620 colon
T-47D breast = system: T-47D breast
TK-10 renal = system: TK-10 renal
U251 CNS = system: U251 CNS
UACC-257 melanoma = system: UACC-257 melanoma
UACC-62 melanoma = system: UACC-62 melanoma
UO-31 renal = system: UO-31 renal

Measured: TGI

CC(=O)/C=C/c1ccccc1
91.9 µM: MDA-N
93.9 µM: HOP-62 NSCLC
68.3 µM: MDA-MB-435
53 µM: SR leukemia
85.5 µM: NCI-H23 lung
49.1 µM: 786-0 renal
76.3 µM: A498 renal
97.9 µM: KM12 colon
32.6 µM: NCI-H522 lung
> 100 µM: A549 NSCLC | ACHN renal | CAKI-1 renal | CCRF-CEM leukemia | COLO 205 colon | DU-145 prostate | EKVX NSCLC | HCC-2998 colon | HCT-116 colon | HCT-15 colon | HL-60(TB) leukemia | HS 578T breast | HT29 colon | K-562 leukemia | MALME-3M melanoma | MCF7 breast | MDA-MB-231 breast | MOLT-4 leukemia | NCI-H460 lung | NCI/ADR-RES ovarian | OVCAR-4 ovarian | OVCAR-5 ovarian | PC-3 prostate | RPMI-8226 leukemia | RXF 393 renal | SF-268 CNS | SF-295 CNS | SK-MEL-2 melanoma | SK-MEL-28 melanoma | SK-OV-3 ovarian | SN12C renal | SNB-19 CNS | SNB-75 CNS | SW-620 colon | T-47D breast | TK-10 renal | U251 CNS | UACC-257 melanoma | UACC-62 melanoma | UO-31 renal
64.6 µM: SF-539 CNS
72.9 µM: OVCAR-8 ovarian
91.2 µM: NCI-H226 lung
64.9 µM: IGROV1 ovarian
85 µM: M14 melanoma
61.2 µM: SK-MEL-5 melanoma

From PubChem BioAssay (NCI)
